Source: article PMC9516332 (Frontiers in Oncology, 2022)
Like-named read-outs stand apart in the source and are kept apart here.

What was measured:
[1] = test system: AP-1060 (ETV6-NTRK3); experiment: Cell viability assay; details: read-out: IC50 in cell proliferation assay
[2] = test system: 134 cancer cell lines; experiment: Cell viability assay (ATPlite, 72 hours), IC50 on cancer cell line panel

SMILES: CC#CC(=O)N1CCC[C@H]1c1nc(-c2ccc(C(=O)Nc3ccccn3)cc2)c2c(N)nccn12 [acalabrutinib]
- IC50 [1]: > 31.6 µM
- IC50 ([2]; HEC-6, read-out: IC50 in cell proliferation assay): > 31.6 µM
- IC50 ([2]; Homo sapiens, 769-P, read-out: IC50 in cell proliferation assay): > 31.6 µM
- IC50 ([2]; Homo sapiens, 786-0, read-out: IC50 in cell proliferation assay): > 31.6 µM
- IC50 ([2]; Homo sapiens, A 172, read-out: IC50 in cell proliferation assay): > 31.6 µM
- IC50 ([2]; Homo sapiens, A204, read-out: IC50 in cell proliferation assay): > 31.6 µM
- IC50 ([2]; Homo sapiens, A498, read-out: IC50 in cell proliferation assay): > 31.6 µM
- IC50 ([2]; Homo sapiens, A549, read-out: IC50 in cell proliferation assay): > 31.6 µM
- IC50 ([2]; Homo sapiens, A704, read-out: IC50 in cell proliferation assay): > 31.6 µM
- IC50 ([2]; Homo sapiens, A-375, read-out: IC50 in cell proliferation assay): > 31.6 µM
- IC50 ([2]; Homo sapiens, A-427, read-out: IC50 in cell proliferation assay): > 31.6 µM
- IC50 ([2]; Homo sapiens, ACHN, read-out: IC50 in cell proliferation assay): 12.6 µM
- IC50 ([2]; Homo sapiens, AN3-CA, read-out: IC50 in cell proliferation assay): > 31.6 µM
- IC50 ([2]; Homo sapiens, ASPC1, read-out: IC50 in cell proliferation assay): > 31.6 µM
- IC50 ([2]; Homo sapiens, AU565, read-out: IC50 in cell proliferation assay): 0.685 µM
- IC50 ([2]; Homo sapiens, BT-20, read-out: IC50 in cell proliferation assay): > 31.6 µM
- IC50 ([2]; Homo sapiens, BT-474, read-out: IC50 in cell proliferation assay): 0.594 µM
- IC50 ([2]; Homo sapiens, BT-549, read-out: IC50 in cell proliferation assay): > 31.6 µM
- IC50 ([2]; Homo sapiens, BXPC-3, read-out: IC50 in cell proliferation assay): > 31.6 µM
- IC50 ([2]; Homo sapiens, C-33-A, read-out: IC50 in cell proliferation assay): 2.01 µM
- IC50 ([2]; Homo sapiens, CAL-27, read-out: IC50 in cell proliferation assay): > 31.6 µM
- IC50 ([2]; Homo sapiens, CCF-STTG1, read-out: IC50 in cell proliferation assay): > 31.6 µM
- IC50 ([2]; Homo sapiens, CCRF-CEM, read-out: IC50 in cell proliferation assay): > 31.6 µM
- IC50 ([2]; Homo sapiens, COLO 205, read-out: IC50 in cell proliferation assay): > 31.6 µM
- IC50 ([2]; Homo sapiens, COLO-829, read-out: IC50 in cell proliferation assay): > 31.6 µM
- IC50 ([2]; Homo sapiens, DLD-1, read-out: IC50 in cell proliferation assay): > 31.6 µM
- IC50 ([2]; Homo sapiens, DU-145, read-out: IC50 in cell proliferation assay): > 31.6 µM
- IC50 ([2]; Homo sapiens, DU-4475, read-out: IC50 in cell proliferation assay): > 31.6 µM
- IC50 ([2]; Homo sapiens, Daoy, read-out: IC50 in cell proliferation assay): > 31.6 µM
- IC50 ([2]; Homo sapiens, DoTc2-4510, read-out: IC50 in cell proliferation assay): 9.83 µM
- IC50 ([2]; Homo sapiens, EOL1, read-out: IC50 in cell proliferation assay): 25.8 µM
- IC50 ([2]; Homo sapiens, FaDu, read-out: IC50 in cell proliferation assay): 28.5 µM
- IC50 ([2]; Homo sapiens, G-361, read-out: IC50 in cell proliferation assay): > 31.6 µM
- IC50 ([2]; Homo sapiens, HCC827, read-out: IC50 in cell proliferation assay): > 31.6 µM
- IC50 ([2]; Homo sapiens, HCC4006, read-out: IC50 in cell proliferation assay): 17.4 µM
- IC50 ([2]; Homo sapiens, HCT-15, read-out: IC50 in cell proliferation assay): > 31.6 µM
- IC50 ([2]; Homo sapiens, HCT-116, read-out: IC50 in cell proliferation assay): > 31.6 µM
- IC50 ([2]; Homo sapiens, HEC-1, read-out: IC50 in cell proliferation assay): > 31.6 µM
- IC50 ([2]; Homo sapiens, HEC-1B, read-out: IC50 in cell proliferation assay): > 31.6 µM
- IC50 ([2]; Homo sapiens, HL-60, read-out: IC50 in cell proliferation assay): > 31.6 µM
- IC50 ([2]; Homo sapiens, HT, read-out: IC50 in cell proliferation assay): > 31.6 µM
- IC50 ([2]; Homo sapiens, HT-1080, read-out: IC50 in cell proliferation assay): > 31.6 µM
- IC50 ([2]; Homo sapiens, Hs746T, read-out: IC50 in cell proliferation assay): 9.68 µM
- IC50 ([2]; Homo sapiens, Hs-578T, read-out: IC50 in cell proliferation assay): > 31.6 µM
- IC50 ([2]; Homo sapiens, HuTu80, read-out: IC50 in cell proliferation assay): > 31.6 µM
- IC50 ([2]; Homo sapiens, J82, read-out: IC50 in cell proliferation assay): > 31.6 µM
- IC50 ([2]; Homo sapiens, Jurkat E6.1, read-out: IC50 in cell proliferation assay): 29.6 µM
- IC50 ([2]; Homo sapiens, K562, read-out: IC50 in cell proliferation assay): > 31.6 µM
- IC50 ([2]; Homo sapiens, KATO III, read-out: IC50 in cell proliferation assay): 31.3 µM
- IC50 ([2]; Homo sapiens, KG-1, read-out: IC50 in cell proliferation assay): > 31.6 µM
- IC50 ([2]; Homo sapiens, KLE, read-out: IC50 in cell proliferation assay): > 31.6 µM
- IC50 ([2]; Homo sapiens, KMS-11, read-out: IC50 in cell proliferation assay): > 31.6 µM
- IC50 ([2]; Homo sapiens, KU812, read-out: IC50 in cell proliferation assay): > 31.6 µM
- IC50 ([2]; Homo sapiens, Kasumi 1, read-out: IC50 in cell proliferation assay): > 31.6 µM
- IC50 ([2]; Homo sapiens, LC-2-ad, read-out: IC50 in cell proliferation assay): 19.6 µM
- IC50 ([2]; Homo sapiens, LNCaP-Clone-FGC, read-out: IC50 in cell proliferation assay): > 31.6 µM
- IC50 ([2]; Homo sapiens, LS174T, read-out: IC50 in cell proliferation assay): > 31.6 µM
- IC50 ([2]; Homo sapiens, LS-411N, read-out: IC50 in cell proliferation assay): > 31.6 µM
- IC50 ([2]; Homo sapiens, LoVo, read-out: IC50 in cell proliferation assay): > 31.6 µM
- IC50 ([2]; Homo sapiens, MCF7, read-out: IC50 in cell proliferation assay): > 31.6 µM
- IC50 ([2]; Homo sapiens, MDA-MB-231, read-out: IC50 in cell proliferation assay): > 31.6 µM
- IC50 ([2]; Homo sapiens, MDA-MB-453, read-out: IC50 in cell proliferation assay): > 31.6 µM
- IC50 ([2]; Homo sapiens, MDA-MB-468, read-out: IC50 in cell proliferation assay): > 31.6 µM
- IC50 ([2]; Homo sapiens, MG-63, read-out: IC50 in cell proliferation assay): > 31.6 µM
- IC50 ([2]; Homo sapiens, MIA PaCa-2, read-out: IC50 in cell proliferation assay): > 31.6 µM
- IC50 ([2]; Homo sapiens, MKN-45, read-out: IC50 in cell proliferation assay): > 31.6 µM
- IC50 ([2]; Homo sapiens, MOLM-13, read-out: IC50 in cell proliferation assay): 9.38 µM
- IC50 ([2]; Homo sapiens, MOLT-4, read-out: IC50 in cell proliferation assay): > 31.6 µM
- IC50 ([2]; Homo sapiens, MV4-11, read-out: IC50 in cell proliferation assay): > 31.6 µM
- IC50 ([2]; Homo sapiens, MeWo, read-out: IC50 in cell proliferation assay): > 31.6 µM
- IC50 ([2]; Homo sapiens, NCCIT, read-out: IC50 in cell proliferation assay): > 31.6 µM
- IC50 ([2]; Homo sapiens, NCI-H82, read-out: IC50 in cell proliferation assay): > 31.6 µM
- IC50 ([2]; Homo sapiens, NCI-H460, read-out: IC50 in cell proliferation assay): > 31.6 µM
- IC50 ([2]; Homo sapiens, NCI-H661, read-out: IC50 in cell proliferation assay): 11 µM
- IC50 ([2]; Homo sapiens, NCI-H716, read-out: IC50 in cell proliferation assay): > 31.6 µM
- IC50 ([2]; Homo sapiens, NCI-H1650, read-out: IC50 in cell proliferation assay): > 31.6 µM
- IC50 ([2]; Homo sapiens, NCI-H1975, read-out: IC50 in cell proliferation assay): > 31.6 µM
- IC50 ([2]; Homo sapiens, NCI-H2228, read-out: IC50 in cell proliferation assay): > 31.6 µM
- IC50 ([2]; Homo sapiens, OVCAR-3, read-out: IC50 in cell proliferation assay): > 31.6 µM
- IC50 ([2]; Homo sapiens, PFSK-1, read-out: IC50 in cell proliferation assay): > 31.6 µM
- IC50 ([2]; Homo sapiens, RL95-2, read-out: IC50 in cell proliferation assay): > 31.6 µM
- IC50 ([2]; Homo sapiens, RPMI-7951, read-out: IC50 in cell proliferation assay): > 31.6 µM
- IC50 ([2]; Homo sapiens, RS4-11, read-out: IC50 in cell proliferation assay): > 31.6 µM
- IC50 ([2]; Homo sapiens, Rec1, read-out: IC50 in cell proliferation assay): 0.021 µM
- IC50 ([2]; Homo sapiens, SHP77, read-out: IC50 in cell proliferation assay): > 31.6 µM
- IC50 ([2]; Homo sapiens, SK-BR-3, read-out: IC50 in cell proliferation assay): 0.409 µM
- IC50 ([2]; Homo sapiens, SK-N-AS, read-out: IC50 in cell proliferation assay): > 31.6 µM
- IC50 ([2]; Homo sapiens, SK-N-FI, read-out: IC50 in cell proliferation assay): > 31.6 µM
- IC50 ([2]; Homo sapiens, SK-N-MC, read-out: IC50 in cell proliferation assay): > 31.6 µM
- IC50 ([2]; Homo sapiens, SK-N-SH, read-out: IC50 in cell proliferation assay): 9.87 µM
- IC50 ([2]; Homo sapiens, SNU-5, read-out: IC50 in cell proliferation assay): > 31.6 µM
- IC50 ([2]; Homo sapiens, SNU-16, read-out: IC50 in cell proliferation assay): > 31.6 µM
- IC50 ([2]; Homo sapiens, SNU-C2B, read-out: IC50 in cell proliferation assay): > 31.6 µM
- IC50 ([2]; Homo sapiens, SU-DHL-1, read-out: IC50 in cell proliferation assay): > 31.6 µM
- IC50 ([2]; Homo sapiens, SU-DHL-6, read-out: IC50 in cell proliferation assay): 0.003 µM
- IC50 ([2]; Homo sapiens, SUP-T1, read-out: IC50 in cell proliferation assay): > 31.6 µM
- IC50 ([2]; Homo sapiens, SW48, read-out: IC50 in cell proliferation assay): 4.43 µM
- IC50 ([2]; Homo sapiens, SW480, read-out: IC50 in cell proliferation assay): > 31.6 µM
- IC50 ([2]; Homo sapiens, SW626, read-out: IC50 in cell proliferation assay): > 31.6 µM
- IC50 ([2]; Homo sapiens, SW780, read-out: IC50 in cell proliferation assay): > 31.6 µM
- IC50 ([2]; Homo sapiens, SW837, read-out: IC50 in cell proliferation assay): > 31.6 µM
- IC50 ([2]; Homo sapiens, SW872, read-out: IC50 in cell proliferation assay): > 31.6 µM
- IC50 ([2]; Homo sapiens, SW900, read-out: IC50 in cell proliferation assay): > 31.6 µM
- IC50 ([2]; Homo sapiens, SW948, read-out: IC50 in cell proliferation assay): > 31.6 µM
- IC50 ([2]; Homo sapiens, SW982, read-out: IC50 in cell proliferation assay): > 31.6 µM
- IC50 ([2]; Homo sapiens, SW-620, read-out: IC50 in cell proliferation assay): > 31.6 µM
- IC50 ([2]; Homo sapiens, T98G, read-out: IC50 in cell proliferation assay): > 31.6 µM
- IC50 ([2]; Homo sapiens, TCC-SUP, read-out: IC50 in cell proliferation assay): > 31.6 µM
- IC50 ([2]; Homo sapiens, THP-1, read-out: IC50 in cell proliferation assay): > 31.6 µM
- IC50 ([2]; Homo sapiens, U2OS, read-out: IC50 in cell proliferation assay): > 31.6 µM
- IC50 ([2]; Homo sapiens, U-87 MG, read-out: IC50 in cell proliferation assay): > 31.6 µM
- IC50 ([2]; Homo sapiens, U-118-MG, read-out: IC50 in cell proliferation assay): > 31.6 µM
- IC50 ([2]; Homo sapiens, UMUC3, read-out: IC50 in cell proliferation assay): > 31.6 µM
- IC50 ([2]; Hs766T, read-out: IC50 in cell proliferation assay): > 31.6 µM
- IC50 ([2]; L-82, read-out: IC50 in cell proliferation assay): > 31.6 µM
- IC50 ([2]; Rh30, read-out: IC50 in cell proliferation assay): > 31.6 µM
